The values below are quoted from earlier work in patent US20210316006A1, “PYRROLOBENZODIAZEPINE CONJUGATES” (priority 2018, published 2021).

The conditions of data set [1]: quoted from Mantaj et al. 2016.
For data set [2] the following is noted: in vitro; quoted from Gregson et al. 1999.

For the compound `COc1cc2c(cc1OCCCOc1cc3c(cc1OC)C(=O)N1CCC[C@H]1C=N3)N=C[C@@H]1CCCN1C2=O` [DSB-120], in data set [1], the activity in vivo result was “poor activity in vivo”.

Regarding `C=C1C[C@H]2C=Nc3cc(OCCCOc4cc5c(cc4OC)C(=O)N4CC(=C)C[C@H]4C=N5)c(OC)cc3C(=O)N2C1` [SG2000], in data set [2], the “cytotoxic potency relative to DSB-120” value is on record as around 9000 fold.
